For one data set, the target named is T1, human Glucagon-R (Homo sapiens, UniProt P47871).
T1 construct: expressed in transfected cells
In words: Glucagon receptor assay (cAMP induction, AlphaScreen). Format: cell-based. As to conditions: HEK293 cells expressing the human Glucagon-R, 15 min at 37° C., read-out: GCG-R EC50 in vitro. The protocol:
The 5′-end primers additionally encoded a near-Kozak consensus sequence to ensure efficient translation. […] 48 hr after transfection, cells were seeded for limited dilution cloning and selected with 1 mg/ml G418 in the culture medium.
On the day of analysis, growth medium was removed and the cells were washed once with […] of the included Assay buffer with IBMX. Cells were incubated in […] Assay buffer/IBMX containing increasing concentrations of test peptides for 15 min at 37° C. Then the peptides/Assay buffer was removed and cells were lysed by addition of […] Lysis buffer pr. well and incubation for at least 10 min at room temperature. From each well […] cell lysate was transferred to a 384-well OptiPlate and mixed with Donor and Acceptor beads and incubated for 1 h at room temperature. The cAMP content was measured on an Envision plate reader.

The next data set is described as follows: physchem. The conditions noted are these: pH 7.5. The protocol:
A stock solution of the test peptide (2 mg/ml; determined by measurement of the absorption of the solution at 280 nm, and using the theoretical extension coefficient based on the content of tryptophan and tyrosine in the peptide) in demineralized water adjusted to pH 2.5 with HCl was prepared, and aliquots were diluted 1:1 in 100 mM acetate buffer (pH 4.0) and 100 mM phosphate buffer (pH 7.5), respectively, and loaded in a standard flat-bottom, non-sterile 96-well UV Microplate. The absorbance of samples (single samples, n=1) at 280 and 325 nm was measured in an absorbance-based plate reader, which was preheated to ambient temperature.

Data set [1] in a line: Chemical stability assessment (RP-HPLC normalized purity). Format: physicochemical. The conditions noted are these: for Normalized purity pH 4.0 after 14 days: 1 mg/ml in 50 mM acetate buffer pH 4.0, 40° C.; for Normalized purity pH 7.5 after 14 days: 1 mg/ml in 50 mM phosphate buffer pH 7.5, 40° C. The protocol:
Samples were placed in glass vials and incubated at 40° C. The samples were analysed by reverse-phase HPLC on a C18 column with gradient elution using an acetonitrile/trifluoroacetic acid/water eluent system. The area-percentage (area-%) of the main peak after incubation time T=t (relative to time T=0) was detected by UV spectrometry at 220 nm. The purity was first determined as follows: Purity(area-%)=(area of main peak/total area of all peaks)×100. […] Normalized purity values in Table 2 were determined after 14 days of incubation.

Square brackets hold non-standard residues; d marks the D form. Peptide text beside a SMILES is read from it. Dab = NCC[C@H](N)C(=O)O; Dap = NC[C@H](N)C(=O)O; Aib = CC(C)(N)C(=O)O

T1 sequence (P47871 26-477): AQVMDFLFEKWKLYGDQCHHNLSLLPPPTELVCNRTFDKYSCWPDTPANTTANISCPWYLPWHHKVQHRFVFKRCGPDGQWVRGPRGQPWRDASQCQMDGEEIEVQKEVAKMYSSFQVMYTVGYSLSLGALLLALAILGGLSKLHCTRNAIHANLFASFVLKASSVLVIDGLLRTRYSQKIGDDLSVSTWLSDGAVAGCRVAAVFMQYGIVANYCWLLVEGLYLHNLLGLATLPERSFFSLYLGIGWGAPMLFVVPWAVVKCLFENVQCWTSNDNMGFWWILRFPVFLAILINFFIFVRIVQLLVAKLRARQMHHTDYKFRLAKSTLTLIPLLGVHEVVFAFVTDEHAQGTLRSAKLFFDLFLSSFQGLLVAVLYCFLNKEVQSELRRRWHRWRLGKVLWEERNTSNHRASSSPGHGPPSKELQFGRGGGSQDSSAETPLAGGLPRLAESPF

As for `CC(C)C[C@H](NC(=O)[C@H](Cc1c[nH]c2ccccc12)NC(=O)[C@H](CCCCN)NC(=O)[C@@H](NC(=O)[C@H](Cc1ccccc1)NC(=O)[C@H](CC(=O)O)NC(=O)[C@H](CCC(=O)O)NC(=O)[C@H](C)NC(=O)[C@H](CCCNC(=N)N)NC(=O)[C@H](C)NC(=O)C(C)(C)NC(=O)[C@H](CC(=O)O)NC(=O)[C@H](CC(C)C)NC(=O)[C@H](Cc1ccc(O)cc1)NC(=O)[C@H](CCCCN)NC(=O)[C@H](CO)NC(=O)[C@H](Cc1ccc(O)cc1)NC(=O)[C@H](CC(=O)O)NC(=O)[C@H](CO)NC(=O)[C@@H](NC(=O)[C@H](Cc1ccccc1)NC(=O)[C@@H](NC(=O)CNC(=O)[C@H](CCC(N)=O)NC(=O)[C@H](CO)NC(=O)[C@@H](N)Cc1c[nH]cn1)[C@@H](C)O)[C@@H](C)O)C(C)C)C(=O)N[C@@H](CCC(=O)O)C(=O)N[C@@H](CO)C(=O)N[C@H](C(=O)O)[C@@H](C)O` [Compound 12] (H-HSQGTFTSDYSKYLD[Aib]ARAEDFVKWLEST-OH), the EC50 on human Glucagon-R worked out at 0.03 nM. The compound also displayed a solubility in the data set “physchem” not below 1000 µg/mL. Besides, in data set [1], the “Normalized purity pH 4.0 after 14 days” value worked out at 86.8% and the “Normalized purity pH 7.5 after 14 days” value is listed as 90.8%.
For `CC(C)C[C@H](NC(=O)[C@H](Cc1c[nH]c2ccccc12)NC(=O)[C@H](CCCCN)NC(=O)[C@@H](NC(=O)[C@H](Cc1ccccc1)NC(=O)[C@H](CO)NC(=O)[C@H](CCC(=O)O)NC(=O)[C@H](C)NC(=O)[C@H](CCCNC(=N)N)NC(=O)[C@H](C)NC(=O)C(C)(C)NC(=O)[C@H](CC(=O)O)NC(=O)[C@H](CC(C)C)NC(=O)[C@H](Cc1ccc(O)cc1)NC(=O)[C@H](CCCCN)NC(=O)[C@H](CO)NC(=O)[C@H](Cc1ccc(O)cc1)NC(=O)[C@H](CC(=O)O)NC(=O)[C@H](CO)NC(=O)[C@@H](NC(=O)[C@H](Cc1ccccc1)NC(=O)[C@@H](NC(=O)CNC(=O)[C@H](CCC(N)=O)NC(=O)[C@H](CO)NC(=O)[C@@H](N)Cc1c[nH]cn1)[C@@H](C)O)[C@@H](C)O)C(C)C)C(=O)N[C@@H](CCC(=O)O)C(=O)N[C@@H](CO)C(=O)N[C@H](C(=O)O)[C@@H](C)O` [Compound 15] (H-HSQGTFTSDYSKYLD[Aib]ARAESFVKWLEST-OH) the same measures were 0.03 nM, not below 1000 µg/mL, 89.1% and 95.1%.
The like results for `CC(C)C[C@H](NC(=O)[C@H](Cc1c[nH]c2ccccc12)NC(=O)[C@H](CCCCN)NC(=O)[C@@H](NC(=O)[C@H](Cc1ccccc1)NC(=O)[C@H](CO)NC(=O)[C@H](CCC(=O)O)NC(=O)[C@H](C)NC(=O)[C@H](CCCNC(=N)N)NC(=O)[C@H](C)NC(=O)C(C)(C)NC(=O)[C@H](CC(=O)O)NC(=O)[C@H](CC(C)C)NC(=O)[C@H](Cc1ccc(O)cc1)NC(=O)[C@H](CCCCN)NC(=O)[C@H](CO)NC(=O)[C@H](Cc1ccc(O)cc1)NC(=O)[C@H](CC(=O)O)NC(=O)[C@H](CO)NC(=O)[C@@H](NC(=O)[C@H](Cc1ccccc1)NC(=O)[C@@H](NC(=O)[C@@H](C)NC(=O)[C@H](CCC(N)=O)NC(=O)[C@H](CO)NC(=O)[C@@H](N)Cc1c[nH]cn1)[C@@H](C)O)[C@@H](C)O)C(C)C)C(=O)N[C@@H](CCC(=O)O)C(=O)N[C@@H](CO)C(=O)N[C@H](C(=O)O)[C@@H](C)O` [Compound 22] (H-HSQ[dA]TFTSDYSKYLD[Aib]ARAESFVKWLEST-OH) were, in that order, 0.024 nM, not below 1000 µg/mL, 91.1% and 95.3%.
The like results for `CC(=O)NCC[C@H](NC(=O)[C@H](CO)NC(=O)[C@@H](N)Cc1c[nH]cn1)C(=O)NCC(=O)N[C@H](C(=O)N[C@@H](Cc1ccccc1)C(=O)N[C@H](C(=O)N[C@@H](CO)C(=O)N[C@@H](CC(=O)O)C(=O)N[C@@H](Cc1ccc(O)cc1)C(=O)N[C@@H](CO)C(=O)N[C@@H](CCCCN)C(=O)N[C@@H](Cc1ccc(O)cc1)C(=O)N[C@@H](CC(C)C)C(=O)N[C@@H](CC(=O)O)C(=O)NC(C)(C)C(=O)N[C@@H](C)C(=O)N[C@@H](CCCNC(=N)N)C(=O)N[C@@H](C)C(=O)N[C@@H](CCC(=O)O)C(=O)N[C@@H](CO)C(=O)N[C@@H](Cc1ccccc1)C(=O)N[C@H](C(=O)N[C@@H](CCCCN)C(=O)N[C@@H](Cc1c[nH]c2ccccc12)C(=O)N[C@@H](CC(C)C)C(=O)N[C@@H](CCC(=O)O)C(=O)N[C@@H](CO)C(=O)N[C@H](C(N)=O)[C@@H](C)O)C(C)C)[C@@H](C)O)[C@@H](C)O` [Compound 24] (H-HS[Dab](Ac)GTFTSDYSKYLD[Aib]ARAESFVKWLEST-NH2) were, in that order, 0.0078 nM, not below 1000 µg/mL, 92.8% and 94.4%.
As for `CC(=O)NCC[C@H](NC(=O)[C@H](CO)NC(=O)[C@@H](N)Cc1c[nH]cn1)C(=O)NCC(=O)N[C@H](C(=O)N[C@@H](Cc1ccccc1)C(=O)N[C@H](C(=O)N[C@@H](CO)C(=O)N[C@@H](CC(=O)O)C(=O)N[C@@H](Cc1ccc(O)cc1)C(=O)N[C@@H](CO)C(=O)N[C@@H](CCCCN)C(=O)N[C@@H](Cc1ccc(O)cc1)C(=O)N[C@@H](CC(C)C)C(=O)N[C@@H](CC(=O)O)C(=O)NC(C)(C)C(=O)N[C@@H](C)C(=O)N[C@@H](CCCNC(=N)N)C(=O)N[C@@H](C)C(=O)N[C@@H](CCC(=O)O)C(=O)N[C@@H](CCC(=O)O)C(=O)N[C@@H](Cc1ccccc1)C(=O)N[C@H](C(=O)N[C@@H](CCCCN)C(=O)N[C@@H](Cc1c[nH]c2ccccc12)C(=O)N[C@@H](CC(C)C)C(=O)N[C@@H](CCC(=O)O)C(=O)N[C@@H](CO)C(=O)N[C@H](C(N)=O)[C@@H](C)O)C(C)C)[C@@H](C)O)[C@@H](C)O` [Compound 40] (H-HS[Dab](Ac)GTFTSDYSKYLD[Aib]ARAEEFVKWLEST-NH2), the EC50 on human Glucagon-R was 0.0035 nM. In “physchem”, this compound displayed a solubility not below 1000 µg/mL.
As to `CC(=O)NC[C@H](NC(=O)[C@H](CO)NC(=O)[C@@H](N)Cc1c[nH]cn1)C(=O)NCC(=O)N[C@H](C(=O)N[C@@H](Cc1ccccc1)C(=O)N[C@H](C(=O)N[C@@H](CO)C(=O)N[C@@H](CC(=O)O)C(=O)N[C@@H](Cc1ccc(O)cc1)C(=O)N[C@@H](CO)C(=O)N[C@@H](CCCCN)C(=O)N[C@@H](Cc1ccc(O)cc1)C(=O)N[C@@H](CC(C)C)C(=O)N[C@@H](CC(=O)O)C(=O)NC(C)(C)C(=O)N[C@@H](C)C(=O)N[C@@H](CCCNC(=N)N)C(=O)N[C@@H](C)C(=O)N[C@@H](CCC(=O)O)C(=O)N[C@@H](CCC(=O)O)C(=O)N[C@@H](Cc1ccccc1)C(=O)N[C@H](C(=O)N[C@@H](CCCCN)C(=O)N[C@@H](Cc1c[nH]c2ccccc12)C(=O)N[C@@H](CC(C)C)C(=O)N[C@@H](CCC(=O)O)C(=O)N[C@@H](CO)C(=O)N[C@H](C(N)=O)[C@@H](C)O)C(C)C)[C@@H](C)O)[C@@H](C)O` [Compound 41] (H-HS[Dap](Ac)GTFTSDYSKYLD[Aib]ARAEEFVKWLEST-NH2), the EC50 on human Glucagon-R is 0.0038 nM. In addition, the solubility in the data set “physchem” is not below 1000 µg/mL.
The like results for “H-HSQGTFTSDYSKYLDEARAKSFVEWLEKT-OH [Compound 27]” were, in that order, 0.063 nM and not below 1000 µg/mL.
The like results for “H-HSQGTFTSDYSKYLDEARAKSFVEWLEST-OH [Compound 28]” were, in that order, 0.035 nM and not below 1000 µg/mL.
For “H-HSQGTFTSDYSKYLDKRRAEDFVSWLEST-OH [Compound 18]” the same measures were 0.026 nM and not below 1000 µg/mL.
In the case of “H-HSQGTFTSDYSKYLDSARAEDFVEWLEST-OH [Compound 6]”, the EC50 at human Glucagon-R is 1 nM. Also, the solubility in “physchem” was not below 1000 µg/mL.
For “H-HSQGTFTSDYSKYLDSARAEDFVSWLEST-OH [Compound 10]” the same measures were 0.32 nM and not below 1000 µg/mL.
For “H-HSQGTFTSDYSKYLDSARAEEFVKWLEST-OH [Compound 9]” the same measures were 0.03 nM and not below 1000 µg/mL.
For the compound “H-HSQGTFTSDYSKYLDSARAESFVKWLEST-OH [Compound 1]”, at human Glucagon-R, the EC50 amounted to 0.064 nM. Also, the solubility in the data set “physchem” was not below 1000 µg/mL.
The like results for “H-HSQGTFTSDYSKYLDVARAESFVKWLEST-OH [Compound 19]” were, in that order, 0.054 nM and not below 1000 µg/mL.
The like results for “H-HSQGTFTSDYSKYLESARAEDFVKWLEST-OH [Compound 8]” were, in that order, 0.38 nM and not below 1000 µg/mL.
The like results for “H-HSQGTFTSDYSRYLESARAEDFVKWLEST-OH [Compound 7]” were, in that order, 0.93 nM and not below 1000 µg/mL.

Values taken from patent US11795204B2 (Zealand Pharma A/S, priority 2012, dated 2023).
